By inhibition is commonly meant how much of the control response was suppressed.

Data on nine compounds can be found in ChEMBL document CHEMBL3132769, “Fragment growing to retain or alter the selectivity of anchored kinase hinge-binding fragments” (Medchemcomm, 2014).

The target in assay [1] is Proto-oncogene tyrosine-protein kinase Src (Homo sapiens) (UniProt P12931). As to the kind of experiment: Inhibition of human full length SRC expressed in baculovirus assessed as substrate phosphorylation using fluorescence-labelled peptides as substrate at 0.2 uM after 90 mins by microfluidic peptide phosphorylation assay.
Sequence of Proto-oncogene tyrosine-protein kinase Src (Homo sapiens) (P12931 2-536 limits assumed): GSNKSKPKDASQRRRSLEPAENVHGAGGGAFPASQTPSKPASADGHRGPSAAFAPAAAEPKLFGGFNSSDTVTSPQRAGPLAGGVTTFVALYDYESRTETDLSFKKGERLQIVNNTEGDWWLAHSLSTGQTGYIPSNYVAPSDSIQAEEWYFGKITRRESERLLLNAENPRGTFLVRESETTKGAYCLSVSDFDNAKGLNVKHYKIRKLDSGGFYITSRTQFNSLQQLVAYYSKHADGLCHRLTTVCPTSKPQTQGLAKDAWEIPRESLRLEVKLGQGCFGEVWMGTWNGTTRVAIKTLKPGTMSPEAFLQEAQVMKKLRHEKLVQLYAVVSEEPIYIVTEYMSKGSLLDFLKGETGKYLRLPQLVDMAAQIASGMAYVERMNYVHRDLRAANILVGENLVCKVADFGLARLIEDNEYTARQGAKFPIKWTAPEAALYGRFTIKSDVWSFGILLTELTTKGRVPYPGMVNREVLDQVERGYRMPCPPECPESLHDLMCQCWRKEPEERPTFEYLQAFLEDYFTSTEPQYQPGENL
Assay [2] concerns the target Ribosomal protein S6 kinase alpha-2 (Homo sapiens) (UniProt Q15349). In words: Inhibition of human full length RSK3 expressed in baculovirus assessed as substrate phosphorylation using fluorescence-labelled peptides as substrate at 0.1 uM after 90 mins by microfluidic peptide phosphorylation assay.
Assay [3] addresses RAC-alpha serine/threonine-protein kinase (Homo sapiens) (UniProt P31749). As to the kind of experiment: Inhibition of human AKT1 catalytic domain expressed in baculovirus assessed as substrate phosphorylation using fluorescence-labelled peptides as substrate at 95 uM after 90 mins by microfluidic peptide phosphorylation assay.
The target in assay [4] is T1, Testis-specific serine/threonine-protein kinase 1 (Homo sapiens) (UniProt Q9BXA7).
T1 sequence (whole entry): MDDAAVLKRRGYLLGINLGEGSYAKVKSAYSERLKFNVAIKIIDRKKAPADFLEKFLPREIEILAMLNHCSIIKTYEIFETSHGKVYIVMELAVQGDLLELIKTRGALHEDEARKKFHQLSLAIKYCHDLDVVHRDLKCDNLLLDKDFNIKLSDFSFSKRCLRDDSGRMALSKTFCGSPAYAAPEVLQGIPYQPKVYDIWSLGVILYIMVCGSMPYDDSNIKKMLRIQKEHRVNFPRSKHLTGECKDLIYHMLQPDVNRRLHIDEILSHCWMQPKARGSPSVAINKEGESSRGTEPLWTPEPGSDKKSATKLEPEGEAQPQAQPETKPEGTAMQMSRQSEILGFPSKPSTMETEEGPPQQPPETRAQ
In words: Inhibition of human full length TSSK1 expressed in baculovirus assessed as substrate phosphorylation using fluorescence-labelled peptides as substrate at 9 uM after 90 mins by microfluidic peptide phosphorylation assay.

The target in assay [5] is Proto-oncogene tyrosine-protein kinase Src (Homo sapiens) (UniProt P12931). In words: Inhibition of human full length SRC expressed in baculovirus assessed as substrate phosphorylation using fluorescence-labelled peptides as substrate at 9 uM after 90 mins by microfluidic peptide phosphorylation assay.
The target of assay [6] is Glycogen synthase kinase-3 beta (Homo sapiens) (UniProt P49841). As to the kind of experiment: Inhibition of human full length GSK-3 beta expressed in baculovirus assessed as substrate phosphorylation using fluorescence-labelled peptides as substrate at 8 uM after 90 mins by microfluidic peptide phosphorylation assay.
Sequence of Glycogen synthase kinase-3 beta (Homo sapiens) (P49841 whole entry, looked up, the tested form may be a part): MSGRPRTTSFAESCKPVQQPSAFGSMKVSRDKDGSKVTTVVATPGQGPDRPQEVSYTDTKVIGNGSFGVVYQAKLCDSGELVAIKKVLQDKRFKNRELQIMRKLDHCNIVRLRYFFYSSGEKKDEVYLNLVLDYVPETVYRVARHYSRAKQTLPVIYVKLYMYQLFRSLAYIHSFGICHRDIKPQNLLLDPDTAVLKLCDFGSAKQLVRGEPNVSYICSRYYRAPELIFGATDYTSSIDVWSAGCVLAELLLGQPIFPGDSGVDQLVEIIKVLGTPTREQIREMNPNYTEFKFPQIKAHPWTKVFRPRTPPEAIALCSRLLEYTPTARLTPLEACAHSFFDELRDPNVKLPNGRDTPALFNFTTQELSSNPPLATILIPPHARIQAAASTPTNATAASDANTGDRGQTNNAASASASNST
Assay [7] concerns the target RAF proto-oncogene serine/threonine-protein kinase (Homo sapiens) (UniProt P04049). As to the kind of experiment: Inhibition of human truncated c-Raf expressed in baculovirus assessed as substrate phosphorylation using fluorescence-labelled peptides as substrate at […] after 90 mins by microfluidic peptide phosphorylation assay.
Assay [8] addresses T2, Protein kinase C epsilon type (Homo sapiens) (UniProt Q02156).
T2 sequence (whole entry): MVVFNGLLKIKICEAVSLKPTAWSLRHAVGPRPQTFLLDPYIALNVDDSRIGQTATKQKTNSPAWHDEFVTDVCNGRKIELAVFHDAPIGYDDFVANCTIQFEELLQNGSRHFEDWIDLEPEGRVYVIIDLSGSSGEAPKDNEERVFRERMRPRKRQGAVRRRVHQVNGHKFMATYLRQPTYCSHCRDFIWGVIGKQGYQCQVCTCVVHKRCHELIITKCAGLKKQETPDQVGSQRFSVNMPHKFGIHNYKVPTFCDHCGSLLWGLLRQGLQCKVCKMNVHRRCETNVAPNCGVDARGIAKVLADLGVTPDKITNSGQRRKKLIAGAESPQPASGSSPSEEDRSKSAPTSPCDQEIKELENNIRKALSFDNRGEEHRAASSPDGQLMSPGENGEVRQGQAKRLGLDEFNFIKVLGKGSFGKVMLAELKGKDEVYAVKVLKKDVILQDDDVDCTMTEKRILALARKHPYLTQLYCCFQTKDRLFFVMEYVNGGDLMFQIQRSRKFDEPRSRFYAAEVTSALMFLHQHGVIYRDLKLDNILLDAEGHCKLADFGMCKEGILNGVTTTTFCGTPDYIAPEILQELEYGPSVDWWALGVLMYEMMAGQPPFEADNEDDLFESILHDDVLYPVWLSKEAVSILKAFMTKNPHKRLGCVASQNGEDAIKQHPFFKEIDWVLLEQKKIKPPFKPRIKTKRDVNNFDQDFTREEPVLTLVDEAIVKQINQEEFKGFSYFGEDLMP
As to the kind of experiment: Inhibition of human truncated PKC epsilon expressed in baculovirus assessed as substrate phosphorylation using fluorescence-labelled peptides as substrate at 1000 uM after 90 mins by microfluidic peptide phosphorylation assay.

Assay [9] has as its target Ribosomal protein S6 kinase alpha-4 (Homo sapiens) (UniProt O75676). As to the kind of experiment: Inhibition of human full length MSK2 expressed in baculovirus assessed as substrate phosphorylation using fluorescence-labelled peptides as substrate at 0.06 uM after 90 mins by microfluidic peptide phosphorylation assay.
The target of assay [10] is Fibroblast growth factor receptor 2 (Homo sapiens) (UniProt P21802). As to the kind of experiment: Inhibition of human FGFR2 catalytic domain expressed in baculovirus assessed as substrate phosphorylation using fluorescence-labelled peptides as substrate at 70 uM after 90 mins by microfluidic peptide phosphorylation assay.
Sequence of Fibroblast growth factor receptor 2 (Homo sapiens) (P21802 22-821 limits assumed): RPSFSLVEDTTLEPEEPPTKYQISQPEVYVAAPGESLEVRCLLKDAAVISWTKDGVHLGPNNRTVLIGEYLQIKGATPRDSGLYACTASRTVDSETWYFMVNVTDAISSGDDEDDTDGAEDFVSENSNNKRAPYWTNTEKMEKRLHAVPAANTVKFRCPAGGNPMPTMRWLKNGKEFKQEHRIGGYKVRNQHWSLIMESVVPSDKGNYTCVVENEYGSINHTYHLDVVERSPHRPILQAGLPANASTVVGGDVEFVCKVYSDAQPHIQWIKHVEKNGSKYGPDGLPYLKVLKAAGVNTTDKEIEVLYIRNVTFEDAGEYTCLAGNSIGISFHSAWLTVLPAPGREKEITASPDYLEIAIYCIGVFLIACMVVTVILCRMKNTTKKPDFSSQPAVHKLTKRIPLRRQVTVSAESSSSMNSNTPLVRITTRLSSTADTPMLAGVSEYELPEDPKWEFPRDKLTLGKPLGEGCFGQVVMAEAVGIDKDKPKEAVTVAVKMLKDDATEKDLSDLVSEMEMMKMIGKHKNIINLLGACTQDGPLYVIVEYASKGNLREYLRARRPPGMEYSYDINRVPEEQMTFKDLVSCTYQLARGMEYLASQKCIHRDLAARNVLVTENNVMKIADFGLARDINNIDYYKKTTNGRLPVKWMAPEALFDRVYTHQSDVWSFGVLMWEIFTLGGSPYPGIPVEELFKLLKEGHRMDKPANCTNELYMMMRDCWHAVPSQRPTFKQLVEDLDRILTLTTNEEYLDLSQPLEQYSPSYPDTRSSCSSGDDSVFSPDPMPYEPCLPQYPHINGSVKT
Assay [11] relates to Tyrosine-protein kinase ABL1 (Homo sapiens), P00519 [T315I]. In words: Inhibition of human truncated ABL T315I mutant expressed in baculovirus assessed as substrate phosphorylation using fluorescence-labelled peptides as substrate at 70 uM after 90 mins by microfluidic peptide phosphorylation assay.
The target of assay [12] is T3, Mitogen-activated protein kinase 13 (Homo sapiens) (UniProt O15264).
T3 sequence (whole entry): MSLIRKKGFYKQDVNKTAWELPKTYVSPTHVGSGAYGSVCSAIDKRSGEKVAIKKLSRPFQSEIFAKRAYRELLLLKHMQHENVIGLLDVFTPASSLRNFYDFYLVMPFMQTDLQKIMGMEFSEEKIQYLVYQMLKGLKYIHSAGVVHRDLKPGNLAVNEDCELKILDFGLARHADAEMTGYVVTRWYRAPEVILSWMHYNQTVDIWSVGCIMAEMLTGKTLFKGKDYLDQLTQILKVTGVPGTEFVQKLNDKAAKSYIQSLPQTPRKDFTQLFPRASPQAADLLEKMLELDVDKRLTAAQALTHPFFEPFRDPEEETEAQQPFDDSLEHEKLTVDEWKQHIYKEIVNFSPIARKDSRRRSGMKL
As to the kind of experiment: Inhibition of human full length p38 delta expressed in Escherichia coli cell assessed as substrate phosphorylation using fluorescence-labelled peptides as substrate at 70 uM after 90 mins by microfluidic peptide phosphorylation assay.

Assay [13] has as its target Mitogen-activated protein kinase 3 (Homo sapiens) (UniProt P27361). In words: Inhibition of human full length ERK1 expressed in Escherichia coli cell assessed as substrate phosphorylation using fluorescence-labelled peptides as substrate at 70 uM after 90 mins by microfluidic peptide phosphorylation assay.
Assay [14] concerns the target Cyclin-dependent kinase 2 (Homo sapiens) (UniProt P24941). As to the kind of experiment: Inhibition of human full length CDK2 expressed in baculovirus assessed as substrate phosphorylation using fluorescence-labelled peptides as substrate at 70 uM after 90 mins by microfluidic peptide phosphorylation assay.

Sequence of Mitogen-activated protein kinase 3 (Homo sapiens) (P27361 whole entry): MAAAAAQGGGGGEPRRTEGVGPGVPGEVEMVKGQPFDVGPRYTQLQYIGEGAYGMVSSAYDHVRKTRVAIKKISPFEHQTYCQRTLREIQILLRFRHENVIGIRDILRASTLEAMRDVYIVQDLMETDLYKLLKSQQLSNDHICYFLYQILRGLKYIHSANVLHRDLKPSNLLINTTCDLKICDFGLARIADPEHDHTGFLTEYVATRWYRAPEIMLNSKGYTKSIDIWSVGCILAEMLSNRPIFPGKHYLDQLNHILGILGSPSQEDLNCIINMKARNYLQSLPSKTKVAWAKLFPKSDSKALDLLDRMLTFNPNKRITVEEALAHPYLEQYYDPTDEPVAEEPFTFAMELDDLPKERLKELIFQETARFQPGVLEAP
Sequence of Ribosomal protein S6 kinase alpha-4 (Homo sapiens) (O75676 whole entry, looked up, the tested form may be a part): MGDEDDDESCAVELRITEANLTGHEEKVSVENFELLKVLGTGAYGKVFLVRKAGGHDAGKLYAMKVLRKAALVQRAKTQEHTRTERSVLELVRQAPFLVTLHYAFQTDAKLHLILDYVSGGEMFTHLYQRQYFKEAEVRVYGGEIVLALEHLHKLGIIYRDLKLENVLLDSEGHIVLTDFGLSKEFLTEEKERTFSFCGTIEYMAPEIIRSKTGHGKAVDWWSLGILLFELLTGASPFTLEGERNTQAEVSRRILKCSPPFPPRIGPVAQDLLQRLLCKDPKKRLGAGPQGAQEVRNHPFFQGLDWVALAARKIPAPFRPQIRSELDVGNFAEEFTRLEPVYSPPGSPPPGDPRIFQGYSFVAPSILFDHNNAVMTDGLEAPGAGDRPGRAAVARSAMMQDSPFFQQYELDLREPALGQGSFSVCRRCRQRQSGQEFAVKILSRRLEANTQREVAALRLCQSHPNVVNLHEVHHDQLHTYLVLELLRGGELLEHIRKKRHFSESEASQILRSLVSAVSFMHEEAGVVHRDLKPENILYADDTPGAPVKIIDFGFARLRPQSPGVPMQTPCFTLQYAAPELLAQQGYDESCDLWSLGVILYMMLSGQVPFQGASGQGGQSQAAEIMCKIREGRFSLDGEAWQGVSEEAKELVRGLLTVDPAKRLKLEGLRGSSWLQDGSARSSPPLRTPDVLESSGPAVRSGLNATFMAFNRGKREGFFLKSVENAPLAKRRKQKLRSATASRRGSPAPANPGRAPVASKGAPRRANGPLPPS
Sequence of Ribosomal protein S6 kinase alpha-2 (Homo sapiens) (Q15349 whole entry, the tested form may be a part): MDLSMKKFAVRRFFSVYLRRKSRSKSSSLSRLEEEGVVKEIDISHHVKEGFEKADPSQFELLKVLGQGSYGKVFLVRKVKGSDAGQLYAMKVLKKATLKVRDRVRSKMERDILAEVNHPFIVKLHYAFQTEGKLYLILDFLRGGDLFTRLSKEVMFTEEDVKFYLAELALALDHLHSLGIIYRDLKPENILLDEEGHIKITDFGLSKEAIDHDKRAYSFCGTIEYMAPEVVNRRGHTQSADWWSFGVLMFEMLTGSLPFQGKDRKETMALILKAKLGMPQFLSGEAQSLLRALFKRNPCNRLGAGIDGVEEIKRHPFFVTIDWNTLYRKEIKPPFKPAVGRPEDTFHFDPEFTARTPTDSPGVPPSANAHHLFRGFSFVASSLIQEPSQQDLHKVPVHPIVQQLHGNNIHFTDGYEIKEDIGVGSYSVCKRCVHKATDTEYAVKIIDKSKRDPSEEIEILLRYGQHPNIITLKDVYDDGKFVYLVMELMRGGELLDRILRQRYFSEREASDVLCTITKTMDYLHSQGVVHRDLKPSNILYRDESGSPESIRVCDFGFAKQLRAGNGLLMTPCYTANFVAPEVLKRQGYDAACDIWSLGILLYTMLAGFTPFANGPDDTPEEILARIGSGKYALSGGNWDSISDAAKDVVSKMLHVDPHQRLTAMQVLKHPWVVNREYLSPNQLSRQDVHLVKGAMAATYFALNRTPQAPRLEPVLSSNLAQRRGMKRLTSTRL
Sequence of RAF proto-oncogene serine/threonine-protein kinase (Homo sapiens) (P04049 whole entry, the tested form may be a part): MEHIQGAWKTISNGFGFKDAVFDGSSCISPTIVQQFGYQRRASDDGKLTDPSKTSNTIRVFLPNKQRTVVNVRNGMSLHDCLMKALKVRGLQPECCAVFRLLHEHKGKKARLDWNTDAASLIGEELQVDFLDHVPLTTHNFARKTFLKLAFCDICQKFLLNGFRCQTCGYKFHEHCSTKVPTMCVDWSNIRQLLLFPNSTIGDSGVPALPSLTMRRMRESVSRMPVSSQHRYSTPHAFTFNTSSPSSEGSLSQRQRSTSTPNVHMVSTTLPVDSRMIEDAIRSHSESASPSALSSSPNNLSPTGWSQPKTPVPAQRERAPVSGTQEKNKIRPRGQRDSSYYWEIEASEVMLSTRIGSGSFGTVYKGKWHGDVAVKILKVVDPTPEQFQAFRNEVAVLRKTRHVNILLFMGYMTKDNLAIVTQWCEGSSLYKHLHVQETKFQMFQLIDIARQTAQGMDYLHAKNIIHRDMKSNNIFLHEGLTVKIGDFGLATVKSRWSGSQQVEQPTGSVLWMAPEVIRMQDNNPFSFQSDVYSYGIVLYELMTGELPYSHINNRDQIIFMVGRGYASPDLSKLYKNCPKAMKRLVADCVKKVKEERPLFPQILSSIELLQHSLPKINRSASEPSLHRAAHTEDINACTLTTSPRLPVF
Sequence of RAC-alpha serine/threonine-protein kinase (Homo sapiens) (P31749 whole entry, the tested form may be a part): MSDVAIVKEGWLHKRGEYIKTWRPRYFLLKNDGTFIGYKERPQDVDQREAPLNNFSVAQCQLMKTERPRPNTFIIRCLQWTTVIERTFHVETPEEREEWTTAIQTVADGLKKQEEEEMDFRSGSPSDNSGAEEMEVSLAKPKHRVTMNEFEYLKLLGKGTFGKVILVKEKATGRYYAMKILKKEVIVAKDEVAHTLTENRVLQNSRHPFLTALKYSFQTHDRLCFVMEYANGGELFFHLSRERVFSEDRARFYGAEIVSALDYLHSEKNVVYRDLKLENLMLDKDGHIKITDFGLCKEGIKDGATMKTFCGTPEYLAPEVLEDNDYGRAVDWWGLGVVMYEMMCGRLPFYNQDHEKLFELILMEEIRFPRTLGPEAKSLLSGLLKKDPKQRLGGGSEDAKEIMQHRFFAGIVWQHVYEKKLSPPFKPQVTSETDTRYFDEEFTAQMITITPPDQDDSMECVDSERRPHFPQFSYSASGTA

As to `Clc1ccc(C2(c3ccc(-c4ncnc5[nH]cnc45)cc3)CCNCC2)cc1`, the inhibition in [1] was found to be 24.5%.

For `C[C@H](CN(C)C)Oc1nc(Nc2cc3cccc(Cl)c3cn2)cnc1C#N`, the inhibition in [2] is 60.5%. For the compound `NCCc1ccc(-c2ncnc3[nH]cnc23)cc1`, the inhibition in [3] came to 81%. Consider `NCC1CN(c2ncnc3[nH]c4cnccc4c23)CCO1` (centres undefined), for which the inhibition in assay [4] came to 41.5%; in [5] it was 19.5%. Regarding `NCC1CCN(c2ncnc3[nH]ccc23)CC1`, the inhibition in assay [6] is 0%. Regarding `COC(=O)c1cnc(Nc2cnc(C#N)cn2)cc1NCC1CCNCC1`, the inhibition in [7] amounted to 7%. Turning to `c1cnc2[nH]ccc2c1`, the inhibition in [8] stood at 38%. With `NC1(Cc2ccc(Cl)cc2)CCN(c2ncnc3[nH]ccc23)CC1`, the inhibition in assay [9] came to 0%. Consider `CNCc1ccc(-c2ncnc3[nH]cnc23)cc1`, for which the inhibition was determined as 27% in [10]; 22% in assay [11]; 5% in [12]; 28.5% in assay [13]; 34% in assay [14].
